Article PMC10397409, “The action of physiological and synthetic steroids on the calcium channel CatSper in human sperm” (Frontiers in Cell and Developmental Biology, 2023)
Like-named read-outs stand apart in the source and are kept apart here.

What was measured:
CatSper [1] = biological target: T1, CatSper (Homo sapiens, UniProt Q7RTX7+Q86XQ3+Q8NEC5+Q96P56); assay: Inhibition of P4-induced Ca2+ influx in human sperm (screen 2 inhibitors); assay type: cell-based; details: for Max P4 inhibition (%) (± SD): 3 independent experiments
T1 construct: Motile spermatozoa were selected by a ‘swim-up’ procedure; endogenous in cells; host or cells: motile human spermatozoa (swim-up) from healthy donors
Protocol: (§1) Briefly, motile spermatozoa were selected by swim-up and labeled with the fluorescent calcium indicator Fluo-4 a.m. to image changes in [Ca^2+]i. After centrifugation to remove excess dye, Fluo-4 AM loaded cells were distributed in a 384-wells plate to obtain ∼125,000 cells/well. After measuring basal fluorescence, a first injection of compounds was performed in order to evaluate their effect on [Ca^2+]i alone. This first screen is therefore considered as a screen to search for ‘activators’. Fluorescence was recorded for 12 min during which sperm cells were continuously exposed to compounds. P4 or PGE1 were then added in the same wells to evaluate whether the tested compounds can reduce the ligand-induced activation of CatSper. This second screen was therefore considered to be a search for CatSper ‘inhibitors’.
(§2) Human semen samples were collected from healthy donors by masturbation after a recommended sexual abstinence period of minimum 2 days. Semen samples were allowed to liquefy at 37°C for 15–30 min. Motile spermatozoa were selected by a ‘swim-up’ procedure as previously described ([Strünker et al., 2011]). Briefly, 1 mL of semen was deposited in a 45°-inclined 50 mL Falcon tube with 4 mL of Human Tubular Fluid (HTF) medium containing: 93.8 mM NaCl, 4.7 mM KCl, 0.2 mM MgSO4, 0.37 mM KH2PO4, 2.04 mM CaCl2, 20.98 mM HEPES, 2.78 mM glucose, 21.4 mM Na-lactate, 4 mM NaHCO3, 0.33 mM Na-pyruvate, and the pH was adjusted to 7.35. Motile sperm were allowed to swim at 37°C for 1 hour. The supernatant was collected in 15 mL Falcon tubes and washed twice by centrifugation at 700 x g for 20 min. Sperm were supplemented with 3 mg/mL HSA. Written informed consent was obtained from all donors prior to donation and approved by the Cantonal Ethics Committee of the State of Geneva (CCER #14-147).
(§3) Cells were loaded with the fluorescent Ca^2+ indicator Fluo-4 AM at a final concentration of 2.5 µM for 30 min at 37°C. Excess dye was washed via centrifugation at 700 x g for 20 min and sperm were resuspended in HTF medium to obtain a final concentration of 6.25 x 10^6 cells/mL. 20 μL of cells (corresponding to ∼125,000 cells) loaded with Fluo-4 a.m. were dispensed in a 384-wells plate (Corning, NY, United States) to allow fluorescence measurement. The dye was excited at 480 nm, and emission was recorded at 530 nm. The change in [Ca^2+]i was assessed simultaneously in all wells using a Functional Drug Screening System (FDSS/μCELL) (Hamamatsu Phototonics K.K., Yokohama, Japan) at 37°C. Basal fluorescence was first measured for 30 s. […] P4 and PGE1 were tested at a near-saturating concentration in the HTS in order to evaluate a potential additive or synergistic effect induced by the compounds. Non-specific CatSper inhibitor MDL 12330A was used as a negative control at final concentration of 20 µM while DMSO was used as a vehicle control. For alkalization-induced Ca^2+ measurement, NH4Cl was used as a positive control at a final concentration of 10 mM. Fluorescence was recorded for a total of 16.5 min: 30 s before injection, 12 min after the first injection of the tested compounds, and 4 min after the second injection of either P4 or PGE1. The Prestwick library was tested in technical duplicate. Ca^2+ response curves were normalized using the following formula F−F0/F0×100 , where F 0 is the average of the basal fluorescence prior to the addition of the compound of interest and F corresponds to the fluorescence value at each time point. The ∆F/F0 of the vehicle control (DMSO) was subtracted from all the other values to adjust for dilution and pipetting artifacts. The values of all compounds were normalized to their respective controls.

CatSper [2] = biological target: T1, CatSper; assay: Steroid-induced increase in [Ca2+]i in human sperm (Fluo-4 HTS assay, screen 1 activators); assay type: cell-based; details: for Emax: read-out: Max amplitude (%) (± SD)
Protocol: as §1
Human semen samples were collected from healthy donors by masturbation after a recommended sexual abstinence period of minimum 2 days. Semen samples were allowed to liquefy at 37°C for 15–30 min. […] Motile sperm were allowed to swim at 37°C for 1 hour. The supernatant was collected in 15 mL Falcon tubes and washed twice by centrifugation at 700 x g for 20 min. Sperm were supplemented with 3 mg/mL HSA.
as §3, with “20” for “Cells were loaded with the fluorescent Ca^2+ indicator Fluo-4 AM at a final concentration of 2.5 µM for 30 min at 37°C. Excess dye was washed via centrifugation at 700 x g for 20 min and sperm were resuspended in HTF medium to obtain a final concentration of 6.25 x 10^6 cells/mL. 20”, “Non-specific CatSper inhibitor MDL 12330A was used as a negative control at final concentration of 20 µM while DMSO was used as a vehicle control.” left out, “Fluorescence was recorded for a total of 16.5 min: 30 s before injection, 12 min after the first injection of the tested compounds, and 4 min after the second injection of either P4 or PGE1.” left out
Data are shown as mean ± standard deviation (SD) with “n” referring to the number of independent experiments performed using sperm samples from ≥3 different donors. Statistical analysis and fitting of dose-response relations were performed using GraphPad Prism 8.1.1 (Prism, La Jolla, United States). To generate sigmoidal curves, the concentrations were converted to their respective log values, and the data were normalized using the following formula: 100⋅x/Fmax , where Fmax is the maximum value of the positive control. A four-parameter Hill equation with a variable Hill coefficient was fitted to generate the EC02, EC50, and IC50. Statistical significance between control and treated conditions was evaluated using a one-way analysis of variance (ANOVA), followed by Dunnett´s test. A p-value <0.05 was considered significant.

CatSper [3] = biological target: T1, CatSper; assay: Inhibition of PGE1-induced Ca2+ influx in human sperm (screen 2 inhibitors); assay type: cell-based
Protocol: as §1, §2, §3

human sperm = assay: Sperm penetration in viscous media (modified Kremer test); assay type: cell-based; details: steroids 10 µM, P4 5 µM, 1 h, 1% methylcellulose
Protocol: The ability of sperm to penetrate in viscous media similar in viscosity to that found in the female reproductive tract was assessed using the modified Kremer test, as previously described ([Rahban et al., 2021]). Briefly, swim-up recovered and capacitated sperm cells at 3 x 10^6/mL were incubated in the absence (DMSO) or presence of steroids (10 µM), or P4 (5 µM) as a positive control for 1 h at 37°C. A glass capillary (0.2 × 4.0 × 50 mm, CM scientific, UK) was filled with 1% (w/v) methylcellulose (MC, 4000 centipoises cP) prepared with HTF media supplemented with 3 mg/mL HSA, respective compounds (10 µM), P4 (5 µM), or DMSO. The glass capillary tube was then sealed on one end with wax (Vitrex, UK) and added to the sperm cells on the open end. Sperm penetration was assessed after 1 h of incubation at 37°C by counting sperm at 1 cm using a microscope with a ×10 objective.

CatSper [4] = biological target: T1, CatSper; parameters: method as in Carlson et al., 2022b; details: ref Carlson et al., 2022b; read-out: IC50 inhibiting P4-induced response; cited from earlier work
[5] = P4-induced response, pooled from 3 independent experiments, read-out: Mean IC50 (P4) µM (±SD)
[6] = maximal amplitude of steroid-induced [Ca2+]i increase, relative to P4, 3 independent experiments
[7] = pooled from 3 independent experiments, read-out: Mean EC50 µM (±SD)
[8] = PGE1-induced response, pooled from 3 independent experiments, read-out: Mean IC50 (PGE1) µM (±SD)

Structure (SMILES)	Max P4 inhibition (%) (± SD) (CatSper [1])	IC50 (CatSper [1]; [5])	Emax (CatSper [2]; [6])	EC50 (CatSper [2]; [7])	IC50 (CatSper [3]; [8])	further results
C[C@]12CC[C@@H]3c4ccc(OS(=O)(=O)O)cc4CC[C@H]3[C@@H]1CCC2=O [Estropipate]	90 (±10) %	0.28 µM	106%	0.159 µM	0.282 µM	IC50 (CatSper [1]; inhibition of P4-induced Ca2+ response, dose-response 90 µM to 0.3 nM, read-out: IC50 (±SD)): 0.288 µM; effective concentrations as low as (dose-dependent increase in [Ca2+]i) (CatSper [2]): 10 nM; EC50 (CatSper [2]; increase in [Ca2+]i, dose-response 90 µM to 0.3 nM, read-out: EC50 (±SD)): 0.161 µM; increase in [Ca2+]i (in words) (CatSper [2]; steroids 10 µM): highest increase in [Ca^2+]i; number of sperm penetrating viscous medium at 1 cm (human sperm): significant increase in cell number
C[C@]12CCC(=O)C=C1CC[C@@H]1[C@@H]2[C@@H](O)C[C@]2(C=O)[C@@H](C(=O)CO)CC[C@@H]12 [aldosterone]	–	–	–	–	–	IC50 (CatSper [4]): 33.1 µM
C[C@]12CCC(=O)C=C1C=C[C@@H]1[C@@H]2CC[C@@]2(C)[C@H]1CC[C@@]2(O)CCC(=O)[O-].[K+] [canrenoic acid potassium salt]	27 (±10) %	23.2 µM	–	23.4 µM	16.3 µM	Max amplitude (%) (± SD) (CatSper [2]; [6]): 34 (±2) %
CC(=O)O[C@]1(C(C)=O)CC[C@H]2[C@@H]3C=C(Cl)C4=CC(=O)CC[C@]4(C)[C@H]3CC[C@@]21C [chlormadinone acetate]	0 (±15) %	–	4%	34.7 µM	38.4 µM	–
C#C[C@]1(O)CC[C@H]2[C@@H]3CCc4cc(O)ccc4[C@H]3CC[C@@]21C [ethinylestradiol]	50 (±14) %	3.36 µM	69%	1.8 µM	6.68 µM	–
C#C[C@]1(OC(C)=O)CC[C@H]2[C@@H]3CCC4=C[C@@H](OC(C)=O)CC[C@@H]4[C@H]3CC[C@@]21C [ethynodiol diacetate]	22 (±14) %	13.9 µM	35%	17.7 µM	12.2 µM	–
CC(C)(C)NC(=O)[C@H]1CC[C@H]2[C@@H]3CC[C@H]4NC(=O)C=C[C@]4(C)[C@H]3CC[C@]12C [finasteride]	18 (±6) %	–	39%	0.78 µM	> 100 µM	–
C#C[C@]1(O)CC[C@H]2[C@@H]3CCC4=CC(=O)CC[C@@H]4[C@H]3CC[C@@]21CC [levonorgestrel]	–	–	–	–	–	IC50 (CatSper [4]): 32.3 µM
C#C[C@]1(O)CC[C@H]2[C@@H]3CCC4=CCCC[C@@H]4[C@H]3CC[C@@]21C [lynestrenol]	47 (±27) %	9.36 µM	59%	17.3 µM	11.7 µM	–
CC(=O)O[C@]1(C(C)=O)CC[C@H]2[C@@H]3C[C@H](C)C4=CC(=O)CC[C@]4(C)[C@H]3CC[C@@]21C [medroxyprogesterone acetate]	–	–	–	–	–	IC50 (CatSper [4]): 6.6 µM
CC(=O)O[C@]1(C(C)=O)CC[C@H]2[C@@H]3C=C(C)C4=CC(=O)CC[C@@H]4[C@H]3CC[C@@]21C [nomegestrol acetate]	12 (±17) %	41.2 µM	19%	22.7 µM	52 µM	–
C[C@]12C/C(=C/O)C(=O)C[C@@H]1CC[C@@H]1[C@@H]2CC[C@@]2(C)[C@H]1CC[C@]2(C)O [oxymetholone]	62 (±9) %	–	–	–	–	IC50 (CatSper [1]; Mean IC50 (P4) µM (±SD), P4-induced response, pooled from 3 independent experiments): 4.74 µM; EC50 (CatSper [2]; Mean EC50 µM (±SD), pooled from 3 independent experiments): 1.3 µM; Emax (CatSper [2]): 82%; IC50 (CatSper [3]): 11.8 µM
C[C@H](CCC(=O)O)[C@H]1CC[C@H]2[C@@H]3[C@@H](O)C[C@@H]4C[C@H](O)CC[C@]4(C)[C@H]3CC[C@]12C [urosiol]	13 (±3) %	–	–	7.89 µM	12.2 µM	Max amplitude (%) (± SD) (CatSper [2]; [6]): 25 (±8) %
